Ends that are not written are not given here. * marks the point of attachment. Biotin = O=C1N[C@H]2[C@H](CS[C@H]2CCCCC(=O)*)N1

The subject of the test is TRPM8 protein and TRPM8 related peptide fragments. Kind of test: Antibody identification of monoclonal antibodies. The test is classed as binding, human. To be noted: monoclonal antibody against the named antigen. The source says: Freund's adjuvant is adopted for respectively immunizing the mice.
2. Detection of TRPM8 antibody: utilizing a radioimmunoassay (RIA) method.
In the case of Biotin-DEVRQWYVNGVNYFTD [T-5], the Affinity is recorded as 10^12 L/mol and the Specificity result is reported as “High”.
Regarding Biotin-DGTTYDFAHCTFTGNESKPL [T-3], the Affinity is 10^12 L/mol and the Specificity result was “High”.
Taken in the same sequence, the figures for Biotin-FKNEDNETLAWEGVMKENYL [T-2] were 10^12 L/mol and “High”.
Take Biotin-LTVIKMEEAGDEIVSNA [T-6]: the Affinity is given as 10^12 L/mol and the Specificity result is “High”.
Take Biotin-VSRNLGPKIIMLQ [T-4]: the Affinity was 10^12 L/mol and the Specificity result is “High”.
The like results for “CEMDI ELHDV SPITRH (CEMDIELHDVSPITRH; HUMAN) [T-12]” were, in that order, 10^12 L/mol and “High”.
Taken in the same sequence, the figures for “CFTGNE SKPLCV ELDEH NLPRFPE (CFTGNESKPLCVELDEHNLPRFPE; HUMAN) [T-9]” were 10^12 L/mol and “High”.
The like results for “CKEKN MESSV CCFKN EDNET (CKEKNMESSVCCFKNEDNET; HUMAN) [T-7]” were, in that order, 10^12 L/mol and “High”.
For the substance “CSEEM RHRFR QLDTK LNDLKG (CSEEMRHRFRQLDTKLNDLKG; HUMAN) [T-8]”, the Affinity is 10^12 L/mol and the Specificity result was “High”.
As for EMDIELHDVSPITRH (HUMAN) [T-18], the Affinity is on record as 10^12 L/mol and the Specificity entry is on record as “High”.
As for FTGNESKPLCVELDEHNLPRFPE (HUMAN) [T-15], the Affinity was 10^12 L/mol and the Specificity entry is “High”.
The like results for KEKNMESSVCCFKNEDNET (HUMAN) [T-13] were, in that order, 10^12 L/mol and “High”.
The like results for “NRRND TLDST RTLYSS (NRRNDTLDSTRTLYSS; HUMAN) [T-10]” were, in that order, 10^12 L/mol and “High”.
Take “NRRNDTLDSTRTLYSSASRSTDLSYS (HUMAN) [T-16]”: the Affinity was 10^12 L/mol and the Specificity entry is “High”.
Taken in the same sequence, the figures for SEEMRHRFRQLDTKLNDLKG (HUMAN) [T-14] were 10^12 L/mol and “High”.
The like results for “VEVED ALTSS AVKEK LVRFC (VEVEDALTSSAVKEKLVRFC; HUMAN) [T-11]” were, in that order, 10^12 L/mol and “High”.
The like results for VEVEDALTSSAVKEKLVRF (HUMAN) [T-17] were, in that order, 10^12 L/mol and “High”.

The record behind these values is patent US11175289B2, “Application of TRPM8 protein, related peptide fragment and their antibodies” (priority 2016, dated 2021).
